Here are results for 2 compounds from US8188129B2, “(−)-enantiomer of the 2-[2-(1-chloro-cyclopropyl)-3-(2-chlorophenyl)-2-hydroxypropyl]-2,4-dihydro-[1,2,4]-triazole-3-thione” (Bayer Aktiengesellschaft, priority 1999, dated 2012).

Assay [1] relates to Cochliobolus sativus. As to the kind of experiment: Cochliobolus sativus test (barley)/protective. The settings on record: protective spray, evaluation 7 days after inoculation.
Protocol: After the spray coating has dried on, the plants are sprayed with a conidia suspension of Cochiliobolus sativus. The plants remain in an incubation cabin at 20° C. and 100% relative atmospheric humidity for 48 hours.
The plants are placed in a greenhouse at a temperature of 20° C. and a relative atmospheric humidity of approximately 80%.
Evaluation is carried out 7 days after the inoculation.
The test system of assay [2] is Uncinula necator. As to the kind of experiment: Uncinula test (vine)/protective. In kind it is in vivo. The settings on record: protective spray, application rate 10 g/ha, evaluation 14 days after inoculation.
Assay [3] has as its system Pyricularia oryzae. In kind it is in vivo. Particulars: rice, protective spray, application rate 375 g/ha, evaluation 4 days after inoculation.
Assay [4] relates to Venturia inaequalis. In words: Venturia test (apple)/curative. The settings on record: curative spray, application rate 1 g/ha, evaluation 12 days after inoculation.
Protocol: To test for curative activity, young plants are inoculated with an aqueous conidia suspension of the apple scab pathogen Venturia inaequalis. The plants remain in an incubation cabin at approximately 20° C. and 100% relative atmospheric humidity for 1 day and are then placed in a greenhouse.
The plants are then placed in a greenhouse at approximately 21° C. and a relative atmospheric humidity of approximately 90%.
Evaluation is carried out 12 days after the inoculation.
Assay [5] concerns Podosphaera leucotricha. In words: Podosphaera test (apple)/protective. In kind it is in vivo. Particulars: protective spray, application rate 10 g/ha, evaluation 10 days after inoculation.

As for `OC(Cc1ccccc1Cl)(Cn1nc[nH]c1=S)C1(Cl)CC1` (racemic) [(Ia), racemic 2-[2-(1-chloro-cyclopropyl)-3-(2-chloro-phenyl)-2-hydroxypropyl]-2,4-dihydro-[1,2,4]-triazole-3-thione], the Efficacy in % in assay [1] (application rate 125 g/ha) is listed as 59%; in assay [1] (application rate 250 g/ha), 66%; in assay [2], 47%; in assay [3] it was 30%; in assay [4], 79%; in assay [5] it was 60%.
Take `OC(Cc1ccccc1Cl)(Cn1nc[nH]c1=S)C1(Cl)CC1` (single isomer, unassigned; (-)) [(I), (−)-enantiomer of 2-[2-(1-chloro-cyclopropyl)-3-(2-chlorophenyl)-2-hydroxypropyl]-2,4-dihydro-[1,2,4]-triazole-3-thione]: the Efficacy in % in assay [1] (application rate 125 g/ha) turned out to be 75%; in assay [1] (application rate 250 g/ha) it was 75%; in assay [2] it was 84%; in assay [3], 90%; in assay [4] it was 91%; in assay [5], 78%.
